Assay results: PubChem BioAssay (NCI)
Several values for one entry are separate records, joined by “and”; a condition that tells them apart may be missing. Equal values may be shown once.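 Where inhibition never reached the appropriate level, the endpoint shown equals the highest concentration tested. Otherwise, values were interpolated linearly from a five-concentration, 48-hour dose response in 96-well plates. Abbreviation: GI50, concentration required for 50% inhibition of growth. At the TGI there is no net growth.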

Assays:
Experiment in all cases: NCI tumour cell line growth inhibition, 48 h
HOP-92 NSCLC = test system: HOP-92 NSCLC
HS 578T breast = test system: HS 578T breast
MOLT-4 leukemia = test system: MOLT-4 leukemia
PC-3 prostate = test system: PC-3 prostate
SF-295 CNS = test system: SF-295 CNS
SF-539 CNS = test system: SF-539 CNS
SK-MEL-5 melanoma = test system: SK-MEL-5 melanoma
SR leukemia = test system: SR leukemia
UO-31 renal = test system: UO-31 renal
HL-60(TB) leukemia = test system: HL-60(TB) leukemia

SMILES	TGI (HOP-92 NSCLC)	TGI (HS 578T breast) [µM]	TGI (MOLT-4 leukemia)	TGI (PC-3 prostate) [µM]	TGI (SF-295 CNS) [µM]	TGI (SF-539 CNS) [µM]	TGI (SK-MEL-5 melanoma) [µM]	TGI (SR leukemia) [µM]	TGI (UO-31 renal)	GI50 (HL-60(TB) leukemia) [µM]	TGI (HL-60(TB) leukemia) [µM]	GI50 (HOP-92 NSCLC)	GI50 (MOLT-4 leukemia) [µM]	GI50 (PC-3 prostate) [µM]	GI50 (SF-295 CNS) [µM]	GI50 (SF-539 CNS) [µM]	GI50 (SK-MEL-5 melanoma)	GI50 (UO-31 renal)	GI50 (HS 578T breast) [µM]	GI50 (SR leukemia) [µM]
c1cc(CCN2CCCCC2)ccn1	> 100 µM	> 100	> 100 µM	> 100	> 100	> 100	> 100	> 100	> 100 µM											
Cn1ccc2c(c1=O)C(=O)c1nccc3c1c-2nc1ccccc13	20.4 µM		7.01 µM	3.64	3.02	3.42	2.84		3.21 µM	2.21	5.03	1.81 µM	2.26	1.69	1.54	1.83	1.51 µM	1.55 µM		
O=c1c2cc(Br)ccc2nc(-c2ccccc2Cl)n1NCC1(O)OCC(O)C(O)C1O (configuration not stated)			> 100 µM		> 100		> 100	> 100	> 100 µM		> 100									
Nc1ccn(CCO)c(=O)n1	> 100 µM				> 100	> 100	> 100	> 100	> 100 µM		> 100									
COC(C(=O)C(O)C(C)O)C1Cc2cc3cc(OC4CC(OC(C)=O)C(OC5CC(O)C(OC)C(C)O5)C(C)O4)cc(O)c3c(O)c2C(=O)C1OC1CC(OC2CC(OC3CC(C)(O)C(OC(=O)C(C)C)C(C)O3)C(O)C(C)O2)C(O)C(C)O1 (configuration not stated)	0.288 µM and 0.039 µM	0.175	0.306 µM and 0.147 µM					0.385	4.1 µM and 5.22 µM			0.0383 µM and 0.00429 µM				0.000553	0.0094 µM and 0.00174 µM	0.399 µM and 0.46 µM		
COc1ccc(-c2cc(-c3ccccc3)nc(N3CCN(CCNc4ccnc5cc(Cl)ccc45)CC3)n2)cc1	3.35 µM	41.9			33	3.06	3	> 100	3.37 µM			1.14 µM			16.6	1.53	1.62 µM	1.4 µM	11.3	0.31
CC(C)(O)C1CCC(Nc2ccc3ncc(-c4cccc(C(F)(F)F)c4)n3n2)CC1 (configuration not stated)		4.67	7.02 µM	12.7	4.67	11.2		11.1	11 µM				1.8	0.815	1.66	1.77		1.07 µM	1.59	1.87
CC(/C(=N/NC(=O)C(N)=O)c1c(Cl)ccc(Cl)c1O)C1(O)C(=O)Nc2ccccc21 (configuration not stated)	75.2 µM				> 100	> 100	> 100		> 100 µM		68									
CC(C)[C@@]12C[C@@H](OC(=O)COC(=O)/C=C/c3ccccc3)[C@@](C)(O1)[C@@H]1CC[C@@H](C)[C@H]1[C@@H]2OC(=O)/C=C/c1ccccc1	> 100 µM	0.0774	> 100 µM	> 100	> 100	> 100	> 100		0.216 µM	> 92.2	> 100	> 64.9 µM	> 100	> 100	> 100	> 100	> 100 µM	0.0656 µM	0.0187	
OCC(O)C(OC1OC(CO)C(O)C(O)C1O)c1nn(-c2ccccc2)c2nc3cc(Cl)c(Cl)cc3cc12 (configuration not stated)			> 100 µM		> 100	> 100		> 100	> 100 µM											
CCN(CCNc1ccc(C)c2sc3cc(Cl)ccc3c(=O)c12)CC(C)O (configuration not stated)	4.28 µM	4.35	3.49 µM	3.31	3.72	2.95	2.98			1.7	3.35	1.61 µM	1.62	1.74	1.67	1.59	1.62 µM		2.23	
CS(=O)(=O)OCCn1cnc2nc(NC(=O)c3ccccc3)[nH]c(=O)c21	> 100 µM				> 100	> 100	> 100	> 100	> 100 µM		> 100									
CC(=O)Nc1ccccc1C=C1c2ccccc2-c2ccccc21		> 100	> 100 µM	> 100	46.2	26.5	> 100	> 100	38.5 µM		> 100									
N=c1c2c(-c3ccccc3)c(-c3ccccc3)n(Cc3ccccc3)c2ncn1CCCO		> 55.9	11.4 µM	12.2	3.32	4.17	2.16	6.4	16.5 µM	1.77	4.74		0.743	1.62	0.58	1.24	0.901 µM	2.24 µM	8.36	0.268
CN(c1ccc(NC(=O)Nc2ccc(OC(F)(F)F)cc2)cc1)c1ccnc(Nc2cccc(S(N)(=O)=O)c2)n1	6.95 µM	17	4.16 µM	5.72	6.48	5.47	7.56		11.9 µM	2.7	6.36	2.36 µM	1.11	1.45	0.861	0.591	3.96 µM	4.63 µM	4.14	
COCC1N=C(c2cc(OC)c(OC)c(OC)c2-c2cc3c(cc2C2OCCCO2)OCO3)O[C@H]1c1ccccc1 (some centres not stated)	> 100 µM		> 100 µM		> 100	> 100	> 100		> 100 µM		> 100									
Cc1cccc(NC(=O)c2cc3cc(N=Nc4ccccc4Cl)ccc3oc2=O)c1	76.1 µM		> 100 µM		> 100	94.9	47.1		55.7 µM		> 100									
COc1ccn2c(C(C)=O)cc(C(=O)c3ccc4c(c3)Sc3ccccc3N4)c2c1	> 100 µM	> 100	> 100 µM	> 100		0.206	0.449	> 100	> 100 µM				0.155	0.129		0.0654	0.104 µM	0.476 µM	0.182	0.0567
CCCCCCCCC(=O)N(C)C1C2CN3CCC(O2)C13 (configuration not stated)			> 100 µM		> 100	> 100	> 100		> 100 µM		> 100									
